# Results as given in patent US20200397894A1, “COMPOSITIONS AND METHODS FOR TREATING CANCER” (University of Virginia Patent Foundation, priority 2016, published 2020).
# “And” between values parts separate entries of the source, which are not always exact repeats. Equal entries are not always repeated.
# Legend:
# DM13 cells = assay: Cell proliferation/viability MTT assay; type: cell-based; settings: Homo sapiens, 96 hours
# Experimental: (§1) Proliferation and viability of cultured cells was measured by CELLTITER96® Non-radioactive Cell Proliferation Assay (Promega Corporation; Madison, Wis., United States of America). Briefly, various wild type and mutant BRAF melanoma cells were seeded in 96 well plates and treated with pevonedistat, vemurafenib, or the combination pevonedistat and vemurafenib at various concentrations. Control cells were treated with DMSO. 96 hours following treatment, cells were stained with the dye solution according to the manufacturer's protocol. Absorbance was recorded at 570 nm and growth curves were established. To test the effect of transient exposure of melanoma cells to pevonedistat on rereplication and growth inhibition, washout experiments were conducted where melanoma cells or PIG3V melanocytes were treated with […] pevonedistat for different times (4, 8, 12, and 24 hours) before the drug was washed out by washing the cells twice with PBS, and adding drug-free fresh growth media to cells. Cells were counted every 24 hours using a COUNTESS™ Automated Cell Counter (INVITROGEN™, Carlsbad, Calif., United States of America), and harvested at the indicated times for PI staining and FACS analysis (cell cycle profile) or for immunoblotting.
# VMM1 melanoma cells = assay: Cell proliferation/viability MTT assay; type: cell-based; settings: Homo sapiens, 96 hours
# Experimental: as §1
# VMM39 cells = assay: Cell proliferation/viability MTT assay; type: cell-based; settings: Homo sapiens, 96 hours
# Experimental: as §1
# FaDu cells = assay: Clonogenic survival assay for radiation sensitivity; type: cell-based, human; design: SF4: unit not given here; settings: for SF4: S 0.1; for SER (sensitivity enhancement ratio): at 10% survival
# Experimental: The effect of pevonedistat treatment or transient silencing of CDT2, geminin, or EMI1 on cell proliferation or on radiation sensitivity was tested using clonogenic survival assays. Cells were transfected with the appropriate si-RNA 48 hours prior to seeding. Cells were then counted using COUNTESS™ Automated Cell Counter (INVITROGEN™, Carlsbad, Calif., United States of America) and were seeded at 15,000 cells/plate in 60 mm dishes. Cells were irradiated 24 hours after seeding with various doses and were cultured for 7-10 days. Once colonies reached the appropriate size (>50 cells each), cells were washed twice with cold PBS, fixed in cold 100% methanol for 10 minutes, and stained with crystal violet (0.5%) for 10 minutes. The plates were washed, dried, and imaged using IMAGE LAB™ software (BioRad Laboratories, Inc., Hercules, Calif., United States of America). QUANTITY ONE® software (BioRad Laboratories, Inc., Hercules, Calif., United States of America) was used to quantify the number of colonies and survival curves were established based on the linear quadratic model, using the formula S=e^−αD-βD2; where S represents the surviving fraction and D the dose of irradiation. Results are represented as mean standard deviation (SD) of three independent experiments normalized to the corresponding non-irradiated plates for each group. When the effect of pevonedistat on cell radiosensitivity was tested, cells were seeded at 15,000 cells/60 mm plate and allowed to adhere for 4-6 hours. Pevonedistat was then added upon cell adherence at varying concentrations and cells were irradiated the following day. The duration of the experiment and the stopping procedure were as described above.
# Cal27 xenografts = assay: HNSCC flank xenograft in nude mice; type: in vivo
# Experimental: The animal studies were conducted in accordance with the guidelines established by the University of Virginia Animal Care and Use Committee (ACUC). The effect of pevonedistat on tumor growth was tested in a flank HNSCC xenograft model. 4-5 weeks old Foxn1^nu athymic female nude immunodeficient mice (20-25 g body weight; Harlan Laboratories, now Envigo, Indianapolis, Ind., United States of America) were used. Pevonedistat was prepared in 10% DMSO containing PBS and filtered before use. 5×10^6 Cal27 cells (suspended in 200 μl sterile PBS) were inoculated subcutaneously in both flanks of nude mice (8 mice per group). When the tumor size reached 100 mm^3 (10 days post-inoculation), mice were randomized and were treated with pevonedistat (20 mg/kg), or with control vehicle (DMSO), administered intraperitoneally on a regimen of 5 days on/5 days off for 2 cycles (Tardat et al., 2010). Tumors from a third group of mice were exposed to 1Gy irradiation (IR) daily, 5 days/week for 3 weeks, and a fourth group of mice received both pevonedistat and IR treatments. Tumor irradiation was performed at the University of Virginia X-Ray facility, and only the tumors on both flanks were irradiated while the rest of animal body was shielded. For combination treatment, pevonedistat was given 2 hours prior to radiation exposure with the same schedule as for the individual treatments. Tumor growth was monitored every other day using an electronic caliper, for 3 weeks post-treatment and average of tumor volumes were calculated using the formula (L×W^2)/2). The results are represented as the mean tumor volumes±s.e.m, and p<0.05 was considered significant.
# [1] = 10 nM pevonedistat 24 hours prior to irradiation
# [2] = 20 nM pevonedistat 24 hours prior to irradiation
# [3] = 40 nM pevonedistat 24 hours prior to irradiation
# [4] = 60 nM pevonedistat 24 hours prior to irradiation
structure (smiles),measurement,setting,value
"NS(=O)(=O)OCC1CC(n2ccc3c(NC4CCc5ccccc54)ncnc32)CC1O [pevonedistat, ((1S,2S,4R)-4-(4-((1S)-2,3-Dihydro-H-inden-1-ylamino)-7H-pyrrolo(2,3-d)pyrimidin-7-yl)-2-hydroxycyclopentyl)methyl sulphamate]",IC50,DM13 cells,40 nM
same,IC50,VMM1 melanoma cells,330 nM
same,IC50,VMM39 cells,35 nM
same,α (linear quadratic model),FaDu cells; [1],0.105
same,β (linear quadratic model),FaDu cells; [1],0.017
same,SF4,FaDu cells; 10 nM pevonedistat,8.979
same,SER (sensitivity enhancement ratio),FaDu cells; 10 nM pevonedistat,1.055
same,α (linear quadratic model),FaDu cells; [2],0.242
same,β (linear quadratic model),FaDu cells; [2],0.006
same,SF4,FaDu cells; 20 nM pevonedistat,7.987
same,SER (sensitivity enhancement ratio),FaDu cells; 20 nM pevonedistat,1.186
same,α (linear quadratic model),FaDu cells; [3],0.241
same,β (linear quadratic model),FaDu cells; [3],0.014
same,SF4,FaDu cells; 40 nM pevonedistat,6.830
same,SER (sensitivity enhancement ratio),FaDu cells; 40 nM pevonedistat,1.387
same,α (linear quadratic model),FaDu cells; [4],0.282
same,β (linear quadratic model),FaDu cells; [4],0.013
same,SF4,FaDu cells; 60 nM pevonedistat,6.328
same,SER (sensitivity enhancement ratio),FaDu cells; 60 nM pevonedistat,1.49 and 1.497
same,growth of Cal27 xenografts,"Cal27 xenografts; 20 mg/kg IP, p=0.0211",significantly suppressed
same,"growth of Cal27 xenografts, combined treatment with IR","Cal27 xenografts; 20 mg/kg pevonedistat plus 1 Gy IR daily, p=2×10^−3 vs. control",more suppression than either treatment alone
same,tolerability,"Cal27 xenografts; nude mice, 20 mg/kg IP, 5 days on/5 days off, two cycles",well tolerated
same,effect on mouse weight,Cal27 xenografts; weighed once a week during the entire experiment,no significant effect
